According to US11111238B2, “Coumarin derivatives, processes for their preparation and uses thereof for the treatment of cancer” (Lead Discovery Center GmbH, priority 2017, dated 2021):

Molecular target: mitochondrial RNA-polymerase (POLRMT) (Mus musculus, UniProt Q8BKF1)
Assay: Homogeneous TR-FRET assay for mitochondrial transcription activity
Assay type: biochemical
Settings: homogeneous TR-FRET assay according to Example 4; activity class
Description: The TR-FRET assay was basically conducted as described in WO2016/193,231A1, especially as described in example 1 (hereby incorporated by reference). With respect to the background of the mitochondrial transcription it is referred to Falkenberg et al. (2002) and Posse et al. (Posse et al., 2015). The method monitors the activity of mitochondrial RNA-polymerase via detection of the formation of its product, a 407 bp long RNA sequence. Detection of the product is facilitated by hybridization of two DNA-oligonucleotide probes to specific and adjacent sequences within the RNA product sequence. Upon annealing of the probes, two fluorophores that are coupled directly to an acceptor nucleotide probe (ATT0647, 5′) or introduced via a coupled streptavidin interacting with a biotinylated donor nucleotide probe on the other side (Europium cryptate, 3′) are brought into sufficient proximity to serve as a fluorescence-donor-acceptor pair as generally described in Walters and Namchuk (2003). Thus, a FRET signal at 665 nm is generated upon excitation at 340 nm.
Briefly, the protocol described here was applied for screening and activity determination in a low-volume 384-well microtiter plate with non-binding surface. For high-throughput application in the 1536-well microtiter plate format, volumes of the reagent mixes were adjusted, maintaining the volumetric ratio. Proteins POLRMT (NM_172551.3), TFAM (NM_009360.4) and TFB2 M (NM_008249.4) were diluted from their stocks to working concentrations of 150 nM, 1.8 μM and 330 nM respectively, in a dilution buffer containing 100 mM Tris-HCl pH 8.0, 200 mM NaCl, 10% (v/v) glycerole, 2 mM glutathione (GSH), 0.5 mM EDTA and 0.1 mg/mL BSA. Protein dilutions and template DNA, comprising a pUC18 plasmid encoding the mitochondrial light strand promoter, restriction linearized proximal to the promoter 3′-end (pUC-LSP), were mixed at the twofold final assay-concentration in a reaction buffer, containing 10 mM Tris-HCl pH 7.5, 10 mM MgCl2, 40 mM NaCl, 2 mM GSH, 0.01% (w/v) Tween-20 and 0.1 mg/mL BSA.
5 μL of this mix were dispensed, depending on the chosen microtiter plate format, using multi-channel pipettes or a Multidrop® dispenser (Thermo Fisher Scientific, Waltham Mass.) into the wells of a microtiter plate and incubated at room temperature (RT) for 10 min. Chemical compounds under scrutiny in the assay were applied using contact-free acoustic droplet-dispensing (Echo520® Labcyte Inc., Sunnyvale Calif.) from 10 mM compound stocks in 100% DMSO, to a final concentration of 10 μM or in serial dilution series of the required concentration range. Equal amounts of DMSO without any compound were added to positive control samples, followed by an incubation step at RT for 10 min.
The enzymatic reaction was started by the addition of 5 μL of a mix of […] in reaction buffer to a final concentration of 500 μM each. No nucleotide mix was added to negative control samples. The content of the wells was mixed using a VarioTeleshaker™ (Thermo Fisher Scientific, Waltham Mass.) at 1,500 rpm for 45 sec after which the microtiter plate was centrifuged at 500×g for 1 min. The samples were incubated for 2 h at RT with humidity control to avoid evaporation. The detection reagents were prepared in a buffer that was composed, such that the enzymatic reaction was terminated due to chelating of Mg-ions and increased ionic strength, containing 50 mM Tris-HCl pH 7.5, 700 mM NaCl, 20 mM EDTA, and 0.01% (w/v) Tween-20. Importantly Eu-cryptate-coupled streptavidin had to be pre-incubated with a 100-fold molar excess of a random sequence oligonucleotide for 10 min at RT in the dark to block unspecific binding of single stranded RNA to the protein. Subsequently, the blocked streptavidin(—Eu) was mixed with the DNA-probes on ice and kept away from light until use. […]

mitochondrial RNA-polymerase (POLRMT), sequence (Q8BKF1 42-1207): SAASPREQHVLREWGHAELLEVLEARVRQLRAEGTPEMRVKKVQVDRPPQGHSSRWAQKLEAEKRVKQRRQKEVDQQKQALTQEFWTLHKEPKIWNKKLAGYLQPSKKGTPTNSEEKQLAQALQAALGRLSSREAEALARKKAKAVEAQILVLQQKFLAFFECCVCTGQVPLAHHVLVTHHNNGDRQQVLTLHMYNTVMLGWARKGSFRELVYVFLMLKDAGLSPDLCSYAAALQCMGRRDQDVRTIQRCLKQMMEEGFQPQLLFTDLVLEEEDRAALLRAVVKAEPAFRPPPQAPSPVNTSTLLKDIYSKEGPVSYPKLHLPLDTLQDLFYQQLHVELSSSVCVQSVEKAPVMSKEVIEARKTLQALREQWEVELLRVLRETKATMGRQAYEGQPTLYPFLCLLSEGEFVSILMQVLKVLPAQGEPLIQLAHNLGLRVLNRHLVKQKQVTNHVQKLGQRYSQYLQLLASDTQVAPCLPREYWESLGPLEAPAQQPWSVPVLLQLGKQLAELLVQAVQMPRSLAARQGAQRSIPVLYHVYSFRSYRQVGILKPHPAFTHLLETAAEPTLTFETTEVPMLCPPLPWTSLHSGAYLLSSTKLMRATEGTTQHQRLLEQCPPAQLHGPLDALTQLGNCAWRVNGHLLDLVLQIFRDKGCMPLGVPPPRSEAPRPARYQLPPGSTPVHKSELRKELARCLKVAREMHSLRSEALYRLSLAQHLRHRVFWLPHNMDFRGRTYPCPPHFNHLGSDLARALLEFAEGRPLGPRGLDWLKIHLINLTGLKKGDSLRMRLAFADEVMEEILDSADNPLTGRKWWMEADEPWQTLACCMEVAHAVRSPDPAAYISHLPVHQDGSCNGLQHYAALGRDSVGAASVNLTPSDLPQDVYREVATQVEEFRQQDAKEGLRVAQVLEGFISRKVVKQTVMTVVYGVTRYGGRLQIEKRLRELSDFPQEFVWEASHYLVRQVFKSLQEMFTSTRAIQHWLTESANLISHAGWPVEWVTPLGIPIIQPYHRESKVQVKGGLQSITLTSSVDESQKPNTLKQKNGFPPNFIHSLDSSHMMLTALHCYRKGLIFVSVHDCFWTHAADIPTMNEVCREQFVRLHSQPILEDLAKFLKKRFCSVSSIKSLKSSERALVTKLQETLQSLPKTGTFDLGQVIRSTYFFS

Row | Structure (SMILES) | IC50
1 | CC(Oc1ccc2c(-c3ccc(F)cc3Cl)cc(=O)oc2c1)C(=O)O (stereo not drawn) [Compound 99, 2-((4-(2-chloro-4-fluorophenyl)-2-oxo-2H-chromen-7-yl)oxy)propanoic acid] | 100 to 1000 nM
2 | C[C@@H](Oc1ccc2c(-c3ccccc3Cl)cc(=O)oc2c1)C(=O)N1CCCCC1 [Compound 34, 4-(2-chlorophenyl)-7-[(1R)-1-methyl-2-oxo-2-(1-piperidyl)ethoxy]chromen-2-one] | < 20 nM
3 | CC(Oc1ccc2c(-c3ccccc3Cl)cc(=O)oc2c1)C(=O)O (stereo not drawn) [Compound 96, 2-[4-(2-chlorophenyl)-2-oxo-chromen-7-yl]oxypropanoic acid] | 100 to 1000 nM
4 | C[C@@H](Oc1ccc2c(-c3ccccc3C#N)cc(=O)oc2c1)C(=O)N1CCC[C@H](C(=O)O)C1 [Compound 162, (3S)-1-[(2R)-2-[4-(2-cyanophenyl)-2-oxo-chromen-7-yl]oxypropanoyl]piperidine-3-carboxylic acid] | 20 to 100 nM
5 | C[C@@H](Oc1ccc2c(-c3ccc(F)cc3Cl)cc(=O)oc2c1)C(=O)N1CCC[C@H](C(N)=O)C1 [Compound 132, (3S)-1-[(2R)-2-[4-(2-chloro-4-fluoro-phenyl)-2-oxo-chromen-7-yl]oxypropanoyl]piperidine-3-carboxamide] | < 20 nM
6 | Cc1ccccc1-c1cc(=O)oc2cc(OC(C)C(=O)N3CC[C@H](C(=O)O)C3)ccc12 (stereo partly drawn) [Compound 22, (3S)-1-[2-[4-(o-tolyl)-2-oxo-chromen-7-yl]oxypropanoyl]pyrrolidine-3-carboxylic acid] | < 20 nM
7 | C[C@@H](Oc1ccc2c(-c3ccc(F)cc3Cl)cc(=O)oc2c1)C(=O)N1CCN[C@H](C(=O)O)C1 [Compound 138, (2S)-4-[(2R)-2-[4-(2-chloro-4-fluoro-phenyl)-2-oxo-chromen-7-yl]oxypropanoyl]piperazine-2-carboxylic acid] | 20 to 100 nM
8 | CC(Oc1ccc2c(-c3ccccc3Cl)cc(=O)oc2c1)C(=O)N1CCC[C@@H](C(=O)N(C)C)C1 (stereo partly drawn) [Compound 67, (3R)-1-[2-[4-(2-chlorophenyl)-2-oxo-chromen-7-yl]oxypropanoyl]-N,N-dimethyl-piperidine-3-carboxamide] | 20 to 100 nM
9 | CCOC(=O)C(C)Oc1ccc2c(-c3ccccc3Cl)cc(=O)oc2c1 (stereo not drawn) [Compound 40, ethyl 2-[4-(2-chlorophenyl)-2-oxo-chromen-7-yl]oxypropanoate] | < 20 nM
10 | COC(=O)C1CN(C(=O)[C@@H](C)Oc2ccc3c(-c4ccc(F)cc4Cl)cc(=O)oc3c2)CCN1C (mixture of isomers) [Compound 137, methyl 1-methyl-4-[rac-(2R)-2-[4-(2-chloro-4-fluoro-phenyl)-2-oxo-chromen-7-yl]oxypropanoyl]piperazine-2-carboxylate] | 100 to 1000 nM
11 | C[C@@H](Oc1ccc2c(-c3ccc(F)cc3Cl)cc(=O)oc2c1)C(=O)N1CCC[C@H](CC(N)=O)C1 [Compound 133, 2-[(3R)-1-[(2R)-2-[4-(2-chloro-4-fluoro-phenyl)-2-oxo-chromen-7-yl]oxypropanoyl]-3-piperidyl]acetamide] | < 20 nM
12 | Cc1ccccc1-c1cc(=O)oc2cc(OC(C)C(=O)N3CCCC(C)(C(=O)O)C3)ccc12 (stereo not drawn) [Compound 43, 3-methyl-1-[2-[4-(o-tolyl)-2-oxo-chromen-7-yl]oxypropanoyl]piperidine-3-carboxylic acid] | < 20 nM
13 | CC(C)NC(=O)C(C)Oc1ccc2c(-c3cccc(F)c3Cl)cc(=O)oc2c1 (stereo not drawn) [Compound 49, 2-[4-(2-chloro-3-fluoro-phenyl)-2-oxo-chromen-7-yl]oxy-N-isopropyl-propanamide] | < 20 nM
14 | CCc1ccccc1-c1cc(=O)oc2cc(O[C@H](C)C(=O)N3CCC[C@H](C(=O)O)C3)ccc12 [Compound 134, (3S)-1-[(2R)-2-[4-(2-ethylphenyl)-2-oxo-chromen-7-yl]oxypropanoyl]piperidine-3-carboxylic acid] | < 20 nM
15 | C[C@@H](Oc1ccc2c(-c3ccccc3Cl)cc(=O)oc2c1)C(=O)N1CCC[C@H](C#N)C1 [Compound 28, (3S)-1-[(2R)-2-[4-(2-chlorophenyl)-2-oxo-chromen-7-yl]oxypropanoyl]piperidine-3-carbonitrile] | < 20 nM
